The source of these data is PubChem BioAssay AID1996.

Molecules are shown by their SMILES. In brackets after ≈: the same amount, converted by molar mass.

The conditions of this data set: buffer; pH 7.4; 200.0 µM.
As a reminder, the solubility (kinetic) is the concentration staying in solution when a stock, usually in DMSO, is diluted into the medium. On to `CCOC(=O)C1(Cc2cccc(F)c2)CCN(C(=O)COC)CC1`, for which the solubility (kinetic) is 47.2 µg/mL (≈ 140 µM).
As to `Clc1ccccc1Sc1ccc(-c2ccccn2)s1`, the solubility (kinetic) is less than 0.7 µg/mL.
`CN(Cc1nc(-c2cnccn2)no1)Cc1cccc2ccccc12` yielded a solubility (kinetic) of 48.9 µg/mL (≈ 148 µM).
On to `Cc1c(C(=O)N2CCOCC2)sc(NC(=O)CCl)c1C#N`, for which the solubility (kinetic) is more than 49.2 µg/mL.
`CC(C)(C)NC(=O)c1ccc2c(c1)CCO2` returned a solubility (kinetic) of more than 32.9 µg/mL.
`O=C(Oc1ccc(C(=S)N2CCOCC2)cc1Cl)c1ccccc1F` registered a kinetic solubility of 9.9 µg/mL (≈ 26.1 µM).
`c1cnc(-c2noc(CN3CCN(C4CCCC4)CC3)n2)cn1` had a kinetic solubility of more than 47.2 µg/mL.
For the compound `Cc1nc2ccccc2c(=O)n1CCCN1CCOCC1`, the kinetic solubility was more than 43.1 µg/mL.
Compound `COc1ccc(C(=O)N2CCC2)cc1S(=O)(=O)NCc1ccc(Cl)cc1` came in with a solubility (kinetic) of 57.4 µg/mL (≈ 145 µM).
For the compound `O=C(NC1CCCC1)C(c1cc2c(cc1[N+](=O)[O-])OCO2)N1CCCC1` (centres undefined), the kinetic solubility amounted to 40.6 µg/mL (≈ 112 µM).
`CC(C)COc1ncnc2c1sc1nc3c(cc12)COC(C)(C)C3` registered a solubility (kinetic) of 3.7 µg/mL (≈ 10.8 µM).
As for `O=C(O)Cn1c(-c2ccccc2)cc2ccccc21`, the figure is 25.3 µg/mL (≈ 101 µM).
`CCn1c(=O)c2sccc2n(Cc2ccccc2)c1=O` came in with a kinetic solubility of 8.9 µg/mL (≈ 31.1 µM).
With `CCCc1ccc(C(=O)O/N=C(\N)c2ccccn2)cc1`, the kinetic solubility is 3.1 µg/mL (≈ 10.9 µM).
As for `CCn1ncc(S(=O)(=O)Nc2cc(Cl)ccc2C)c1C`, the figure is more than 47.1 µg/mL.
`N#C/C(=C\c1ccccc1)C(=O)N1CCN(c2ccccc2F)CC1` showed a solubility (kinetic) of 20.4 µg/mL (≈ 60.8 µM).
`COc1cc(OC)c(C2Nc3cccc4cccc(c34)N2)c(OC)c1` had a kinetic solubility of 4.4 µg/mL (≈ 13.1 µM).
`COc1ccc(S(=O)(=O)N2CCOCC2)cc1NC(=O)COC(=O)CC1CC2CCC1C2` (centres undefined) returned a solubility (kinetic) of 11.3 µg/mL (≈ 24.2 µM).
On to `O=C(NC(=S)NCc1ccccc1Cl)c1cccs1`, for which the kinetic solubility was found to be 3.2 µg/mL (≈ 10.3 µM).
As for `CCOC(=O)c1sc(=NC(=O)c2ccc(F)cc2)n(C)c1C`, the figure is 1.4 µg/mL (≈ 4.34 µM); as for `COc1cccc(NC(=O)NCc2ccccn2)c1`, more than 38.6 µg/mL; as for `Cc1ccc(CN2CCCN(Cc3ccc(C)cc3)S2(=O)=O)cc1`, less than 0.4 µg/mL.
Take `COc1ccc(NC(=O)c2cc([N+](=O)[O-])ccc2N2CCCCC2)cc1`: the solubility (kinetic) was found to be 0.3 µg/mL (≈ 0.844 µM).
As for `C=CCN1C(=O)c2ccc(C(=O)N3CCC(C(N)=O)CC3)cc2C1=O`, the figure is 47.9 µg/mL (≈ 140 µM).
As for `Cc1ccc(NC(c2ccccc2)c2nc3ccccc3[nH]c2=O)cc1` (centres undefined), the kinetic solubility amounted to 0.5 µg/mL (≈ 1.46 µM).
As for `O=C1CCC([N+](=O)[O-])C(c2cc(Br)ccc2F)N1` (centres undefined), the kinetic solubility was 46.4 µg/mL (≈ 146 µM).
Take `O=C(CC(=O)NCc1ccc(Cl)cc1)NCc1ccccc1`: the solubility (kinetic) was determined as 7.1 µg/mL (≈ 22.4 µM).
`COc1ccc(CNC(=S)Nc2cccc(OC)c2)cc1` yielded a kinetic solubility of 41.1 µg/mL (≈ 136 µM).
With `CC(=O)N/C(=N/c1nc(C)cc(C)n1)Nc1ccc(C)cc1C`, the solubility (kinetic) was 3.4 µg/mL (≈ 10.9 µM).
The compound `CCOC(=O)C1=C(O)C(=O)N(c2ccccc2)C1c1cccc([N+](=O)[O-])c1` (centres undefined) yielded a solubility (kinetic) of 52 µg/mL (≈ 141 µM).
In the case of `CC(C)OC(=O)c1ccc(COC(=O)CNC(=O)c2ccco2)cc1`, the kinetic solubility worked out at 34.8 µg/mL (≈ 101 µM).
In the case of `CC(=O)c1c[nH]c(C(=O)NC2CCCCCC2)c1`, the kinetic solubility was 34.9 µg/mL (≈ 141 µM).
In turn, `COP(=O)(NS(=O)(=O)c1ccccc1)OC` came in with a kinetic solubility of 33.9 µg/mL (≈ 128 µM).
As for `Cc1ccc(C(=O)OCC(=O)NCCc2ccccc2)cc1C`, the figure is 11.3 µg/mL (≈ 36.3 µM); as for `O=C(NC(=S)Nc1ccc(F)cc1)C1CCCCC1`, 1.3 µg/mL (≈ 4.64 µM); as for `O=C(CCc1nnc(CCC2CCCCC2)o1)NCc1ccon1`, more than 49.9 µg/mL.
Turning to `CCn1c(=O)c2ccccc2n(Cc2cccc(C)c2)c1=O`, the solubility (kinetic) turned out to be 19.9 µg/mL (≈ 67.6 µM).
Consider `Cc1nc(C(=O)NCC(=O)c2ccccc2)c(C(F)(F)F)o1`, for which the kinetic solubility is more than 46.8 µg/mL.
The figure for `CCOc1cc(CNc2ccc(N3CCCC3)cc2)cc(Cl)c1OC` is less than 0.4 µg/mL; for `CCN(Cc1nc(-c2ccc(C)cc2)no1)C(=O)c1ccco1` it is 38.9 µg/mL (≈ 125 µM); for `COC(=O)/C(=C\C(=O)c1ccccc1)Nc1ccc(OC)cc1` it is 7.6 µg/mL (≈ 24.4 µM).
As for `Cc1ccc(NC(=O)CN2C(=O)NC(C)(CC(C)C)C2=O)cc1F` (centres undefined), the figure is more than 50.3 µg/mL; as for `Fc1cccc(NC(=S)NCc2ccccc2Cl)c1`, 1.6 µg/mL (≈ 5.43 µM); as for `CCC(CC)NC(=O)Cn1c(C(C)NC(C)=O)nc2ccccc21` (centres undefined), 41.3 µg/mL (≈ 125 µM).
Turning to `CC(C)(C)c1csc(NC(=O)c2ccccc2O)n1`, the kinetic solubility amounted to 9.3 µg/mL (≈ 33.7 µM).
As for `C=CCn1c(NC(=O)c2ccco2)nc2ccccc21`, the kinetic solubility was found to be 21.2 µg/mL (≈ 79.3 µM).
The figure for `COC(=O)c1[nH]c2cc(C)ccc2c1NC(=O)CN1CCOCC1` is more than 49.7 µg/mL; for `Cc1nnc(SC(C)C#N)n1-c1ccccc1` (centres undefined) it is more than 36.6 µg/mL.
As for `CS(=O)(=O)N1CCC(C(=O)NCc2ccccc2)CC1`, the figure is more than 44.5 µg/mL; as for `COC(=O)C1CCN(C(=O)CN2C(=O)NC3(CCC(C)CC3)C2=O)CC1` (centres undefined), more than 54.8 µg/mL.
For `S=C(Nc1ccc(Cl)cc1)NC1CCCCC1`, the solubility (kinetic) stood at 4.4 µg/mL (≈ 16.4 µM).
Turning to `CC(Oc1ccc(Cl)cc1Cl)C(=O)Nc1ccc(OCC(=O)O)cc1` (centres undefined), the solubility (kinetic) was more than 57.6 µg/mL.
The compound `CSc1cccc(NC(=O)CNC(=O)C2CCCCC2)c1` registered a solubility (kinetic) of 22.7 µg/mL (≈ 74.1 µM).
With `CCC(=O)Nc1ccc(NC(=O)c2cccc3ccccc23)cc1`, the solubility (kinetic) is less than 0.3 µg/mL.
`CC(=O)c1cccc(NC(=O)CC(C)n2ccnc2)c1` (centres undefined) came in with a kinetic solubility of more than 40.7 µg/mL.
`COc1ccc2oc(N)c(C=O)c(=O)c2c1` showed a solubility (kinetic) of 30.8 µg/mL (≈ 141 µM).
`CC1CCN(c2ccc(C=O)o2)CC1` showed a kinetic solubility of more than 29 µg/mL.
As to `COCC(=O)N1CCCC(C(=O)c2ccc3c4c(cccc24)CC3)C1` (centres undefined), the solubility (kinetic) turned out to be 49.8 µg/mL (≈ 148 µM).
In the case of `COc1ccc(NC(=O)CSc2nc3nc(C)cc(C)c3c(=O)[nH]2)cc1OC`, the kinetic solubility came to 6.5 µg/mL (≈ 16.2 µM).
As for `CCOc1ccc(/C=C(\C)C(=O)c2c(C)cc(C)[nH]c2=O)cc1`, the figure is 38.3 µg/mL (≈ 123 µM); as for `COc1ccc(NC(=S)NCCc2ccccc2)c(C)c1`, 8.5 µg/mL (≈ 28.3 µM); as for `C=CCNC(=O)C1=NN(c2c(F)c(F)cc(F)c2F)C(=O)CC1`, more than 49.4 µg/mL.
The figure for `CCN1CCN(c2nc(Nc3cccc(F)c3)nc(N)c2[N+](=O)[O-])CC1` is more than 54.2 µg/mL; for `O=C(NCc1ccccn1)C1CCCCC1` it is more than 32.7 µg/mL.
The figure for `O=C(CCNC(=O)c1ccccc1)Nc1ccc(Cl)c(S(=O)(=O)N2CCCCC2)c1` is 29.8 µg/mL (≈ 66.2 µM).
Compound `c1csc(-c2nc(N3CCOCC3)c3ccccc3n2)c1` displayed a kinetic solubility of 2 µg/mL (≈ 6.73 µM).
Consider `NNC(=O)c1oc2ccccc2c1-n1cccc1`, for which the kinetic solubility was more than 36.2 µg/mL.
Regarding `CCCCOc1ccc(C2(C)NC(=O)N(C)C2=O)cc1` (centres undefined), the solubility (kinetic) was more than 41.5 µg/mL.
`Cc1ccccc1NC(=S)NC(=O)C1CCCCC1` displayed a kinetic solubility of 1 µg/mL (≈ 3.62 µM).
`Cc1ccc(C)c(N2CCN(c3ncccc3[N+](=O)[O-])CC2)c1` yielded a kinetic solubility of 1.1 µg/mL (≈ 3.52 µM).
`Cl.c1ccc2c(CC3=NCCN3)cccc2c1` came in with a kinetic solubility of more than 37 µg/mL.
As for `Cn1c(SCC(=O)N2CCCCCC2)nnc1-c1ccco1`, the figure is more than 48.1 µg/mL; as for `CC(=O)OC(C(=O)Nc1nccs1)c1ccccc1` (centres undefined), more than 41.4 µg/mL; as for `COc1ccc(/C=C/C(=O)N2CCN(C)CC2)cc1OC`, more than 43.6 µg/mL.
